Here are results for one compound from article PMC6440977 (Nature Communications, 2019).

The EC50 is the concentration at which the effect is half-maximal. Low values mean higher potency in that assay, high ones lower potency in that assay.

The target in this test is T. brucei PKAR-PKAC1 holoenzyme (Trypanosoma brucei, UniProt Q9GU80). The test can be described thus: biochemical. It counts as biochemical.

Each structure is given as a SMILES string.

Take `N#Cc1cn([C@@H]2O[C@H](CO)[C@@H](O)[C@H]2O)c2ncnc(O)c12` [7-CN-7-C-Ino, 7-Cyano-7-deazainosine]: the EC50 was 6.5 ± 4.6 nM.
